Reference: BindingDB's records for PubMed 7509389 (Fujisawa Pharmaceutical, 1994)

Molecular target: T1, Gastrin/cholecystokinin type B receptor (Rattus norvegicus, UniProt P30553)
T1 sequence (P30553 whole entry): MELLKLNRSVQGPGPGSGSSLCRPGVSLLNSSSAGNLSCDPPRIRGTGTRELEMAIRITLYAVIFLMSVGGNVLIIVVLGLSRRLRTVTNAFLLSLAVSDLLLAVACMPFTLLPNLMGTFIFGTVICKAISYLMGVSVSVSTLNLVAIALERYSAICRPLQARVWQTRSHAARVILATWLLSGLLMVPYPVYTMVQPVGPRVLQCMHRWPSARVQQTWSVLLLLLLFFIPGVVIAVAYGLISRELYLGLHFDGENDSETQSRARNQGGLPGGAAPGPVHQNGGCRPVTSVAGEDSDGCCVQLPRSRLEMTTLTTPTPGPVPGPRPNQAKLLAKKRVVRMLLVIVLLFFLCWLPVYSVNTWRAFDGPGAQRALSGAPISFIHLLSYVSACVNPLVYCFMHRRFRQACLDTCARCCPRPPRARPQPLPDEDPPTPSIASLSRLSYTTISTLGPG

- Ki: 330 nM
Structure (SMILES): CCCCCN(CCCOC)C(=O)C(CCC(=O)O)NC(=O)c1ccc(Cl)c(Cl)c1 (stereo unspecified) [4-(3,4-dichlorobenzamido)-5-((3-methoxypropyl)(pentyl)amino)-5-oxopentanoic acid]
